“And” between values parts separate entries of the source, which are not always exact repeats. Equal entries are not always repeated.

Type in all cases: in vivo, C57BL/6 Apoe KO mice
The test system of experiment [1] is Apoe KO mouse atherosclerosis model. The experiment can be described thus: Atherosclerosis model (Apoe KO mice, high-fat diet): blood lipid tests TCHO, TG, LDL-C, HDL-C. Details: blood lipids (CHO) in Apo E−/− mice / blood lipids (TG) in Apo E−/− mice / blood lipids (HDL-C) in Apo E−/− mice / blood lipids (LDL-C) in Apo E−/− mice: unit not given here. The following applies: for blood lipids (CHO) in Apo E−/− mice / blood lipids (HDL-C) in Apo E−/− mice / blood lipids (LDL-C) in Apo E−/− mice / blood lipids (TG) in Apo E−/− mice: HFD + ATV-5 mpk, 5 mg/kg. The protocol:
(§1) Method: Apoe KO mice were tested for basal blood lipid levels and divided into a normal control group and a high-fat group. After 8 weeks of housing, the mice from the high-fat group were divided into 4 groups of about 8: a normal diet group (Chow), a high-fat diet model group (HFD), an Atorvastatin positive group (HFD+atorvastatin 5 mpk, QD), and a GEN1-284s group (284-60 mpk, QD). Oral administration was performed for 8 consecutive weeks, and the effect of the compound on the following indicators in Apoe KO mice was observed: 4 blood lipid tests (TC, TG, HDL-C and LDL-C), aortic plaque En-face staining, and pathological oil red staining of the cardiac outflow tract.
(§2) Mice from the groups except for the normal diet control group (Chow) were fed with high-fat feed every day for […]. From week 9, each group was orally administered solvent or a corresponding test compound, and body weight data were recorded every day for 8 consecutive weeks. After the first 8 weeks' high-fat diet, blood samples were taken and centrifuged to separate serum, and the serum was tested for blood lipid levels (TCHO, TG, LDL-C and HDL-C). The mice were randomly grouped according to the TCHO results and body weight. During the subsequent 8 weeks of administration, blood lipid tests (TCHO, TG, LDL-C and HDL-C) were run once every 4 weeks.
Mice were fasted overnight, and blood (150 μL) was collected via mandibular blood sampling or eye ball removal (for endpoint only) and left at room temperature for 2 h. The blood was centrifuged at 4° C. at 7000 rpm for 10 min, and serum was pipetted, quick-frozen in dry ice and then stored at −80° C. before analysis. The serum was tested for the biochemical indicators TCHO, TG, LDL-C and HDL-C using kits and a microplate reader.

For experiment [2] the test system is unchanged. The experiment can be described thus: Atherosclerosis model: aortic plaque En-face staining and plaque area. How it is done: as §1, §2
At the end of the experiment, the mice were euthanized by CO2 inhalation, and their hearts and aortas (from the aortic arch to the iliac artery) were isolated. The isolated artery was dissected longitudinally from the aortic arch to the iliac artery, fixed in 4% paraformaldehyde for 30 min, synchronized with 60% isopropanol for 10 min, then stained in 60% oil red for 30 min, and then washed with 60% isopropanol 3 times for 5 min each time. Finally, the stained aorta was washed with deionized water and photographed. The proportion of red plaque areas was measured using Image Pro Plus 6.0 (Media Cybernetics, MD, US).

Experiment [3] has the same test system. The experiment in a line: Atherosclerosis model: plaques in the cardiac (left ventricular) outflow tract. The protocol: as §1, §2
Mouse heart samples were fixed overnight in 4% paraformaldehyde solution and dehydrated in sucrose solution. Then, the samples were embedded with OCT (Sakura, Japan) under a stereo microscope and made into 10 μm frozen sections. The sections were stained with oil red ORO and then subjected to routine pathological examinations. Images of the outflow tract were acquired under an optical microscope at 4× magnification, and high-quality morphological observations were carried out using an eyepiece with 20× magnification. The percentage of intimal lesions in the cardiac outflow tract was calculated. The detection criteria followed the criteria for histological classification of human atherosclerotic disease, which are described in detail below:
The area of plaques in the left ventricular outflow tract was measured using a microscope, and the proportion of plaques in the left ventricular outflow tract was calculated; this value reflects the degree of stenosis in the cardiac outflow tract vessel.

Where [4] appears, read: Apoe KO mice, high-fat diet, atorvastatin 5 mpk QD oral.

For `CC(C)c1c(C(=O)Nc2ccccc2)c(-c2ccccc2)c(-c2ccc(F)cc2)n1CC[C@@H](O)C[C@@H](O)CC(=O)O` [ATV], the “blood lipids (CHO) in Apo E−/− mice” value in experiment [1] (Time 1, individual mice) was 1.195 and 1.061 and 1.217 and 1.075 and 1.359 and 0.7849 and 0.5037; in experiment [1] (Time 2, individual mice), 0.8468 and 0.9207 and 0.799 and 1.023 and 0.6043 and 0.8602 and 0.8475 and 0.8932; in experiment [1] (Time 3, individual mice), 1.237 and 0.9298 and 1.587 and 1.424 and 1.118 and 0.7614 and 1.278 and 1.057; in experiment [1] (Time 4, individual mice) it was 1.183 and 1.199 and 1.344 and 1.673 and 1 and 1.22 and 0.7566 and 1.398. Also, the “blood lipids (HDL-C) in Apo E−/− mice” value in experiment [1] (Time 1, individual mice) was 0.4304 and 1.163 and 1.735 and 1.563 and 1.618 and 1.29 and 1.027; in experiment [1] (Time 2, individual mice) it was 1.178 and 0.769 and 0.5861 and 0.7669 and 0.6443 and 0.8023 and 0.8584 and 0.9664; in experiment [1] (Time 3, individual mice), 0.713 (2×) and 0.8416 and 0.6487 and 1.292 and 1.1791 and 0.8576 (2×); in experiment [1] (Time 4, individual mice), 0.9522 and 1.062 and 0.6434 and 4.724 and 0.6654 and 1.371 and 0.6875 and 0.8419. Also, the “blood lipids (LDL-C) in Apo E−/− mice” value in experiment [1] (Time 1, individual mice) was 1.101 and 1.061 and −0.07821 and 1.123 and 1.296 and 0.676 and 1.006; in experiment [1] (Time 2, individual mice) it was 0.7237 and 0.8132 and 0.6614 and 1.342 and 0.603 and 0.5797 and 1.152 and 1.234; in experiment [1] (Time 3, individual mice) it was 0.9753 and 0.8023 and 0.8722 and 0.6477 and 0.7655 and 0.4564 and 1.218 and 1.421; in experiment [1] (Time 4, individual mice), 1.05 and 1.675 and 0.9086 and 0.8511 and 1.319 and 0.3604 and 0.6019 and 1.123. The “blood lipids (TG) in Apo E−/− mice” value was 1.038 and 0.845 and 1.136 and 1.282 and 0.875 and 1.001 and 0.9307 in experiment [1] (Time 1, individual mice); 1.204 and 0.9447 and 1.095 and 1.111 and 0.7477 and 0.9934 and 0.7632 and 0.9336 in experiment [1] (Time 2, individual mice); 1.341 and 0.9611 and 1.459 and 1.456 and 0.9501 and 1.063 and 1.577 and 0.6584 in experiment [1] (Time 3, individual mice); 1.516 and 1.429 and 2.38 and 2.165 and 1.213 and 1.476 and 0.5106 and 0.9949 in experiment [1] (Time 4, individual mice). For the same molecule, the “atherosclerotic plaques in mice (proportion of arterial plaque area)” value in experiment [2] (HFD + ATV-5 mpk, PO QD 8 W, individual mice, 5 mg/kg, in % (unit assumed)) is 10.98 and 13.52 and 8.609 and 9.551 and 9.286 and 13.92 and 13.86. For the same molecule, the “plaques in the cardiac outflow tracts of mice (proportion of plaques in the left ventricular outflow tract)” value in experiment [3] (HFD + ATV-5 mpk, PO QD 8 W, individual mice, 5 mg/kg, in %) is 1.923 and 8.46 and 9.071 and 7.844 and 1.618 and 3.771 and 2.279 and 8.38.
`CC(C)c1c(C(=O)Nc2ccccc2)c(-c2ccccc2)c(-c2ccc(F)cc2)n1CC[C@@H](O)C[C@@H](O)CC(=O)O` [atorvastatin, reference compound]: the Effect on dyslipidemia result in experiment [1] (Apoe KO mice, high-fat diet, atorvastatin 5 mpk QD oral, 8 weeks) is given as “dyslipidemia was relieved”. In experiment [2] (setting [4]), the “Proportion of the arterial plaque area” value is listed as “significantly reduced”. The “Left ventricular outflow tract plaques” value in experiment [3] (setting [4]) is recorded as “significantly fewer plaques than the HFD group”.

Source of the values: patent US20240391940A1, “FUSED RING-CONTAINING COMPOUND, APPLICATION THEREOF, AND COMPOSITION CONTAINING SAME” (GenEros Biopharma Ltd., priority 2020, published 2024).
